Test: Solubility test for sobrerol in dissolution medium with different pH and purified water
Type: physicochemical
Description: 1. The Preparation of Dissolution Medium with Different pH Levels:
(1) Dissolution Medium with pH 2.5
7.164 g of disodium hydrogen phosphate (containing 12 molecules of water) was added to a 100 mL volumetric flask, then purified water was added to quantify to 100 mL, and then stirred using a stir bar. After the disodium hydrogen phosphate (containing 12 molecules of water) in the volumetric flask was completely dissolved, a 0.2 M disodium hydrogen phosphate solution was obtained.
19.213 g of anhydrous citric acid was assed to a 1 L volumetric flask, then purified water water was added to quantify to 1 L, and then stirred using a stir bar. After the anhydrous citric acid in the volumetric flask was completely dissolved, a 0.1 M citric acid solution was obtained.
Next, According to the list of formulas of McIlvaine buffer with different pH values, 0.2 M […] solution and 0.1 M citric acid solution were mixed at a ratio of 1.71:18.29 to obtain a dissolution medium with pH 2.5.
(2) Dissolution Medium with pH 4.5
15.6 g of Sodium dihydrogen phosphate (containing 2 molecules of water) was added to a 1 L volumetric flask, then purified water water was added to quantify to 1 L, and then stirred using a stir bar. After the sodium dihydrogen phosphate (containing 2 molecules of water) in the volumetric flask was completely dissolved, a phosphate dissolution medium with pH 4.5 was obtained.
(3) Dissolution Medium with pH 6.8
7.8 g of Sodium dihydrogen phosphate (containing 2 molecules of water) and 0.94 g of sodium hydroxide were added to a 1 L volumetric flask, then purified water water was added to quantify to 1 L, and then stirred using a stir bar. […]
250 mL of dissolution medium prepared above or purified water water was added to a beaker and a stir bar was added for stirring. […] Sobrerol was continuously added until sobrerol cannot be completely dissolved within 30 minutes, and then the total amount of sobrerol added was counted, that was, the actual solubility limit of sobrerol.

Q: For `CC1=CCC(C(C)(C)O)CC1O` (stereo not drawn) [sobrerol], which “soluble amount of sobrerol (actual solubility limit)” value (250 mL dissolution medium with pH 2.5, 4.5, 6.8 or purified water, all media) is on record?
A: > 900 mg

Q: What about the “effect of pH on solubility of sobrerol” value (dissolution medium with different pH and purified water) of the same molecule?
A: not affected by pH

Q: What about the “solubility classification according to FDA Biopharmaceutics Classification System guideline” value (soluble amount compared with the daily total of 900 mg) of the same molecule?
A: meets the specifications for high solubility drugs

— patent publication US20210290557A1, “MULTI-PARTICULATE PHARMACEUTICAL COMPOSITION, IMMEDIATE RELEASE PELLETS, SUSTAINED RELEASE PELLETS, ENTERIC RELEASE PELLETS AND USE THEREOF” (Industrial Technology Research Institute, priority 2019, published 2021)
